Assay results from publication PMC7156458, “Synthetic biology based construction of biological activity-related library of fungal decalin-containing diterpenoid pyrones” (Nature Communications, 2020).

Target: Aβ42 (Homo sapiens, UniProt P05067)
Assay: Th-T (thioflavin-T) assay of Aβ42 aggregation
Type: biochemical
Details: for Th-T assay plate reading, mean of three wells (Supplementary Fig. 47): source data, Ab alone and No Ab as controls

Sequence of Aβ42 (P05067 672-713): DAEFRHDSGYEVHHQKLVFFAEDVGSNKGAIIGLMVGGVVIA

SMILES: C=C1CCC2C(C)(CCC=C(C)C)C(=O)CCC2(C)C1Cc1c(O)c(C)c(C)oc1=O (stereo not shown) [Compound 8]
- Th-T fluorescence, mean of three wells (Aβ42 aggregation time course, reading M118): 2.194
- Th-T fluorescence, mean of three wells (Aβ42 aggregation time course, reading M119): 2.214
- Th-T fluorescence, mean of three wells (Aβ42 aggregation time course, reading M120): 2.225
- Th-T fluorescence, mean of three wells (Aβ42 aggregation time course, reading M121): 2.184
- Th-T fluorescence, mean of three wells (Aβ42 aggregation time course, reading M122): 2.1853
- Th-T fluorescence, mean of three wells (Aβ42 aggregation time course, reading M123): 2.186
- Th-T fluorescence, mean of three wells (Aβ42 aggregation time course, reading M124): 2.207
- Th-T fluorescence, mean of three wells (Aβ42 aggregation time course, reading M125): 2.241
- Th-T fluorescence, mean of three wells (Aβ42 aggregation time course, reading M126): 2.218
- Th-T fluorescence, mean of three wells (Aβ42 aggregation time course, reading M127): 2.187
- Th-T fluorescence, mean of three wells (Aβ42 aggregation time course, reading M128): 2.217
- Th-T fluorescence, mean of three wells (Aβ42 aggregation time course, reading M129): 2.196
- Th-T fluorescence, mean of three wells (Aβ42 aggregation time course, reading M130): 2.222
- Th-T fluorescence, mean of three wells (Aβ42 aggregation time course, reading M131): 2.189
- Th-T fluorescence, mean of three wells (Aβ42 aggregation time course, reading M132): 2.211
- Th-T fluorescence, mean of three wells (Aβ42 aggregation time course, reading M133): 2.1957
- Th-T fluorescence, mean of three wells (Aβ42 aggregation time course, reading M134): 2.2077
- Th-T fluorescence, mean of three wells (Aβ42 aggregation time course, reading M135): 2.191
- Th-T fluorescence, mean of three wells (Aβ42 aggregation time course, reading M136): 2.198
- Th-T fluorescence, mean of three wells (Supplementary Fig. 47, reading M138): 2.179
- Th-T fluorescence, mean of three wells (Supplementary Fig. 47, reading M139): 2.196
- Th-T fluorescence, mean of three wells (Supplementary Fig. 47, reading M140): 2.2093
- Th-T fluorescence, mean of three wells (Supplementary Fig. 47, reading M141): 2.191
- Th-T fluorescence, mean of three wells (Supplementary Fig. 47, reading M142): 2.182
- Th-T fluorescence, mean of three wells (Supplementary Fig. 47, reading M143): 2.202
- Th-T fluorescence, mean of three wells (Supplementary Fig. 47, reading M144): 2.22
- Th-T fluorescence, mean of three wells (Supplementary Fig. 47, reading M145): 2.173
- Th-T fluorescence, mean of three wells (Supplementary Fig. 47 source data, measurement M38 of time course): 2.163
- Th-T fluorescence, mean of three wells (Supplementary Fig. 47 source data, measurement M39 of time course): 2.1439
- Th-T fluorescence, mean of three wells (Supplementary Fig. 47 source data, measurement M40 of time course): 2.183
- Th-T fluorescence, mean of three wells (Supplementary Fig. 47 source data, measurement M41 of time course): 2.185
- Th-T fluorescence, mean of three wells (Supplementary Fig. 47 source data, measurement M42 of time course): 2.198
- Th-T fluorescence, mean of three wells (Supplementary Fig. 47 source data, measurement M43 of time course): 2.197
- Th-T fluorescence, mean of three wells (Supplementary Fig. 47 source data, measurement M44 of time course): 2.1886
- Th-T fluorescence, mean of three wells (Supplementary Fig. 47 source data, measurement M45 of time course): 2.191
- Th-T fluorescence, mean of three wells (Supplementary Fig. 47 source data, measurement M46 of time course): 2.181
- Th-T fluorescence, mean of three wells (Supplementary Fig. 47 source data, measurement M47 of time course): 2.191
- Th-T fluorescence, mean of three wells (Supplementary Fig. 47 source data, measurement M48 of time course): 2.202
- Th-T fluorescence, mean of three wells (Supplementary Fig. 47 source data, measurement M49 of time course): 2.2088
- Th-T fluorescence, mean of three wells (Supplementary Fig. 47 source data, measurement M50 of time course): 2.229
- Th-T fluorescence, mean of three wells (Supplementary Fig. 47 source data, measurement M51 of time course): 2.215
- Th-T fluorescence, mean of three wells (Supplementary Fig. 47 source data, measurement M52 of time course): 2.214
- Th-T fluorescence, mean of three wells (Supplementary Fig. 47 source data, measurement M53 of time course): 2.236
- Th-T fluorescence, mean of three wells (Supplementary Fig. 47 source data, measurement M54 of time course): 2.223
- Th-T fluorescence, mean of three wells (Supplementary Fig. 47 source data, measurement M55 of time course): 2.205
- Th-T fluorescence, mean of three wells (Supplementary Fig. 47 source data, measurement M56 of time course): 2.204
- Th-T assay plate reading, mean of three wells (Supplementary Fig. 47) (measurement M2): 0.2095
- Th-T assay plate reading, mean of three wells (Supplementary Fig. 47) (measurement M3): 0.2324
- Th-T assay plate reading, mean of three wells (Supplementary Fig. 47) (measurement M4): 0.2683
- Th-T assay plate reading, mean of three wells (Supplementary Fig. 47) (measurement M5): 0.2913
- Th-T assay plate reading, mean of three wells (Supplementary Fig. 47) (measurement M6): 0.3294
- Th-T assay plate reading, mean of three wells (Supplementary Fig. 47) (measurement M7): 0.3614
- Th-T assay plate reading, mean of three wells (Supplementary Fig. 47) (measurement M8): 0.4027
- Th-T assay plate reading, mean of three wells (Supplementary Fig. 47) (measurement M9): 0.444
- Th-T assay plate reading, mean of three wells (Supplementary Fig. 47) (measurement M10): 0.4702
- Th-T assay plate reading, mean of three wells (Supplementary Fig. 47) (measurement M11): 0.5005
- Th-T assay plate reading, mean of three wells (Supplementary Fig. 47) (measurement M12): 0.5205
- Th-T assay plate reading, mean of three wells (Supplementary Fig. 47) (measurement M13): 0.553
- Th-T assay plate reading, mean of three wells (Supplementary Fig. 47) (measurement M14): 0.605
- Th-T assay plate reading, mean of three wells (Supplementary Fig. 47) (measurement M15): 0.733
- Th-T assay plate reading, mean of three wells (Supplementary Fig. 47) (measurement M16): 0.9658
- Th-T fluorescence, mean of three wells (reading M18, Supplementary Fig. 47 source data): 1.528
- Th-T fluorescence, mean of three wells (reading M19, Supplementary Fig. 47 source data): 1.697
- Th-T fluorescence, mean of three wells (reading M20, Supplementary Fig. 47 source data): 1.804
- Th-T fluorescence, mean of three wells (reading M21, Supplementary Fig. 47 source data): 1.844
- Th-T fluorescence, mean of three wells (reading M22, Supplementary Fig. 47 source data): 1.86
- Th-T fluorescence, mean of three wells (reading M23, Supplementary Fig. 47 source data): 1.891
- Th-T fluorescence, mean of three wells (reading M24, Supplementary Fig. 47 source data): 1.925
- Th-T fluorescence, mean of three wells (reading M25, Supplementary Fig. 47 source data): 1.959
- Th-T fluorescence, mean of three wells (reading M26, Supplementary Fig. 47 source data): 2.003
- Th-T fluorescence, mean of three wells (reading M27, Supplementary Fig. 47 source data): 2.003
- Th-T fluorescence, mean of three wells (reading M28, Supplementary Fig. 47 source data): 2.0134
- Th-T fluorescence, mean of three wells (reading M29, Supplementary Fig. 47 source data): 2.048
- Th-T fluorescence, mean of three wells (reading M30, Supplementary Fig. 47 source data): 2.063
- Th-T fluorescence, mean of three wells (reading M31, Supplementary Fig. 47 source data): 2.093
- Th-T fluorescence, mean of three wells (reading M32, Supplementary Fig. 47 source data): 2.109
- Th-T fluorescence, mean of three wells (reading M33, Supplementary Fig. 47 source data): 2.135
- Th-T fluorescence, mean of three wells (reading M34, Supplementary Fig. 47 source data): 2.108
- Th-T fluorescence, mean of three wells (reading M35, Supplementary Fig. 47 source data): 2.139
- Th-T fluorescence, mean of three wells (reading M36, Supplementary Fig. 47 source data): 2.159
- Th-T fluorescence, mean of three wells (time course, reading M58): 2.216
- Th-T fluorescence, mean of three wells (time course, reading M59): 2.2236
- Th-T fluorescence, mean of three wells (time course, reading M60): 2.219
- Th-T fluorescence, mean of three wells (time course, reading M61): 2.226
- Th-T fluorescence, mean of three wells (time course, reading M62): 2.227
- Th-T fluorescence, mean of three wells (time course, reading M63): 2.25
- Th-T fluorescence, mean of three wells (time course, reading M64): 2.223
- Th-T fluorescence, mean of three wells (time course, reading M65): 2.24
- Th-T fluorescence, mean of three wells (time course, reading M66): 2.247
- Th-T fluorescence, mean of three wells (time course, reading M67): 2.214
- Th-T fluorescence, mean of three wells (time course, reading M68): 2.201
- Th-T fluorescence, mean of three wells (time course, reading M69): 2.2304
- Th-T fluorescence, mean of three wells (time course, reading M70): 2.212
- Th-T fluorescence, mean of three wells (time course, reading M71): 2.214
- Th-T fluorescence, mean of three wells (time course, reading M72): 2.213
- Th-T fluorescence, mean of three wells (time course, reading M73): 2.224
- Th-T fluorescence, mean of three wells (time-course reading M98, Supplementary Fig. 47 source data): 2.211
- Th-T fluorescence, mean of three wells (time-course reading M99, Supplementary Fig. 47 source data): 2.236
- Th-T fluorescence, mean of three wells (time-course reading M100, Supplementary Fig. 47 source data): 2.235
- Th-T fluorescence, mean of three wells (time-course reading M101, Supplementary Fig. 47 source data): 2.216
- Th-T fluorescence, mean of three wells (time-course reading M102, Supplementary Fig. 47 source data): 2.236
- Th-T fluorescence, mean of three wells (time-course reading M103, Supplementary Fig. 47 source data): 2.209
- Th-T fluorescence, mean of three wells (time-course reading M104, Supplementary Fig. 47 source data): 2.206
- Th-T fluorescence, mean of three wells (time-course reading M105, Supplementary Fig. 47 source data): 2.201
- Th-T fluorescence, mean of three wells (time-course reading M106, Supplementary Fig. 47 source data): 2.237
- Th-T fluorescence, mean of three wells (time-course reading M107, Supplementary Fig. 47 source data): 2.2129
- Th-T fluorescence, mean of three wells (time-course reading M108, Supplementary Fig. 47 source data): 2.1995
- Th-T fluorescence, mean of three wells (time-course reading M109, Supplementary Fig. 47 source data): 2.203
- Th-T fluorescence, mean of three wells (time-course reading M110, Supplementary Fig. 47 source data): 2.217
- Th-T fluorescence, mean of three wells (time-course reading M111, Supplementary Fig. 47 source data): 2.201
- Th-T fluorescence, mean of three wells (time-course reading M112, Supplementary Fig. 47 source data): 2.214
- Th-T fluorescence, mean of three wells (time-course reading M113, Supplementary Fig. 47 source data): 2.2232
- Th-T fluorescence, mean of three wells (time-course reading M114, Supplementary Fig. 47 source data): 2.196
- Th-T fluorescence, mean of three wells (time-course reading M115, Supplementary Fig. 47 source data): 2.1937
- Th-T fluorescence, mean of three wells (time-course reading M116, Supplementary Fig. 47 source data): 2.237
